Measured values as given in PubChem BioAssay (NCI).
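Protocol summary: plate cells (96-well), add compound at 5 concentrations, incubate 48 h, interpolate endpoints linearly. TGI: total growth inhibition.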

Assays:
Assay in all cases: NCI-60 cell line screen, 48 h
A498 renal = test system: A498 renal
HCC-2998 colon = test system: HCC-2998 colon
OVCAR-3 ovarian = test system: OVCAR-3 ovarian
HCT-15 colon = test system: HCT-15 colon
LXFL 529 NSCLC = test system: LXFL 529 NSCLC
EKVX NSCLC = test system: EKVX NSCLC
A549 NSCLC = test system: A549 NSCLC
CAKI-1 renal = test system: CAKI-1 renal
COLO 205 colon = test system: COLO 205 colon
SK-MEL-28 melanoma = test system: SK-MEL-28 melanoma
U251 CNS = test system: U251 CNS
RXF 393 renal = test system: RXF 393 renal
NCI-H522 lung = test system: NCI-H522 lung
DLD-1 colon = test system: DLD-1 colon
SW-620 colon = test system: SW-620 colon
HT29 colon = test system: HT29 colon
KM20L2 colon = test system: KM20L2 colon
CCRF-CEM leukemia = test system: CCRF-CEM leukemia
SNB-78 CNS = test system: SNB-78 CNS
NCI-H226 lung = test system: NCI-H226 lung
SF-539 CNS = test system: SF-539 CNS
SF-268 CNS = test system: SF-268 CNS
SK-MEL-2 melanoma = test system: SK-MEL-2 melanoma
M14 melanoma = test system: M14 melanoma
DMS 114 small cell lung = test system: DMS 114 small cell lung
NCI-H23 lung = test system: NCI-H23 lung
HOP-62 NSCLC = test system: HOP-62 NSCLC
ACHN renal = test system: ACHN renal
SR leukemia = test system: SR leukemia
UACC-257 melanoma = test system: UACC-257 melanoma
TK-10 renal = test system: TK-10 renal
DMS 273 small cell lung = test system: DMS 273 small cell lung
IGROV1 ovarian = test system: IGROV1 ovarian
UO-31 renal = test system: UO-31 renal
KM12 colon = test system: KM12 colon
OVCAR-5 ovarian = test system: OVCAR-5 ovarian
UACC-62 melanoma = test system: UACC-62 melanoma
NCI-H460 lung = test system: NCI-H460 lung
SN12C renal = test system: SN12C renal
K-562 leukemia = test system: K-562 leukemia
OVCAR-4 ovarian = test system: OVCAR-4 ovarian
RPMI-8226 leukemia = test system: RPMI-8226 leukemia
LOX IMVI melanoma = test system: LOX IMVI melanoma
786-0 renal = test system: 786-0 renal
OVCAR-8 ovarian = test system: OVCAR-8 ovarian
HL-60(TB) leukemia = test system: HL-60(TB) leukemia
SNB-19 CNS = test system: SNB-19 CNS
MOLT-4 leukemia = test system: MOLT-4 leukemia
HCT-116 colon = test system: HCT-116 colon
SNB-75 CNS = test system: SNB-75 CNS
SF-295 CNS = test system: SF-295 CNS
SK-MEL-5 melanoma = test system: SK-MEL-5 melanoma
M19-MEL melanoma = test system: M19-MEL melanoma
XF 498 CNS = test system: XF 498 CNS
SK-OV-3 ovarian = test system: SK-OV-3 ovarian
HOP-92 NSCLC = test system: HOP-92 NSCLC
MALME-3M melanoma = test system: MALME-3M melanoma

## Cc1ccc(S(=O)(=O)c2ccc(NC(=O)SCCC(=O)O)cc2)cc1
A498 renal
  TGI: > 100 µM
HCC-2998 colon
  TGI: > 100 µM
OVCAR-3 ovarian
  TGI: > 100 µM
HCT-15 colon
  TGI: > 100 µM
LXFL 529 NSCLC
  TGI: > 100 µM
EKVX NSCLC
  TGI: > 100 µM
A549 NSCLC
  TGI: > 100 µM
CAKI-1 renal
  TGI: > 100 µM
COLO 205 colon
  TGI: > 100 µM
SK-MEL-28 melanoma
  TGI: > 100 µM
U251 CNS
  TGI: > 100 µM
RXF 393 renal
  TGI: > 100 µM
NCI-H522 lung
  TGI: > 100 µM
DLD-1 colon
  TGI: > 100 µM
SW-620 colon
  TGI: > 100 µM
HT29 colon
  TGI: > 100 µM
KM20L2 colon
  TGI: > 100 µM
CCRF-CEM leukemia
  TGI: > 100 µM
SNB-78 CNS
  TGI: > 100 µM
NCI-H226 lung
  TGI: > 100 µM
SF-539 CNS
  TGI: > 100 µM
SF-268 CNS
  TGI: > 100 µM
SK-MEL-2 melanoma
  TGI: > 100 µM
M14 melanoma
  TGI: > 100 µM
DMS 114 small cell lung
  TGI: > 100 µM
NCI-H23 lung
  TGI: > 100 µM
HOP-62 NSCLC
  TGI: > 100 µM
ACHN renal
  TGI: > 100 µM
SR leukemia
  TGI: > 100 µM
UACC-257 melanoma
  TGI: > 100 µM
TK-10 renal
  TGI: > 100 µM
DMS 273 small cell lung
  TGI: > 100 µM
IGROV1 ovarian
  TGI: > 100 µM
UO-31 renal
  TGI: > 100 µM
KM12 colon
  TGI: > 100 µM
OVCAR-5 ovarian
  TGI: > 100 µM
UACC-62 melanoma
  TGI: > 100 µM
NCI-H460 lung
  TGI: > 100 µM
SN12C renal
  TGI: > 100 µM
K-562 leukemia
  TGI: > 100 µM
OVCAR-4 ovarian
  TGI: > 100 µM
RPMI-8226 leukemia
  TGI: > 100 µM
LOX IMVI melanoma
  TGI: > 100 µM
786-0 renal
  TGI: > 100 µM
OVCAR-8 ovarian
  TGI: > 100 µM
HL-60(TB) leukemia
  TGI: > 100 µM
SNB-19 CNS
  TGI: > 100 µM
MOLT-4 leukemia
  TGI: > 100 µM
HCT-116 colon
  TGI: > 100 µM
SNB-75 CNS
  TGI: > 100 µM
SF-295 CNS
  TGI: > 100 µM

## O=C(CC(CC(=O)Oc1c(Br)cc(Br)cc1C(=O)O)C(=O)Oc1c(Br)cc(Br)cc1C(=O)O)Oc1c(Br)cc(Br)cc1C(=O)O
A498 renal
  TGI: > 100 µM
HCC-2998 colon
  TGI: > 100 µM
OVCAR-3 ovarian
  TGI: > 100 µM
HCT-15 colon
  TGI: > 100 µM
LXFL 529 NSCLC
  TGI: > 100 µM
SK-MEL-5 melanoma
  TGI: > 100 µM
EKVX NSCLC
  TGI: > 100 µM
A549 NSCLC
  TGI: > 100 µM
CAKI-1 renal
  TGI: > 100 µM
COLO 205 colon
  TGI: > 100 µM
SK-MEL-28 melanoma
  TGI: > 100 µM
U251 CNS
  TGI: > 100 µM
NCI-H522 lung
  TGI: 55.4 µM
DLD-1 colon
  TGI: > 100 µM
SW-620 colon
  TGI: > 100 µM
M19-MEL melanoma
  TGI: > 100 µM
HT29 colon
  TGI: > 100 µM
KM20L2 colon
  TGI: > 100 µM
CCRF-CEM leukemia
  TGI: > 100 µM
SNB-78 CNS
  TGI: > 100 µM
NCI-H226 lung
  TGI: 57 µM
SF-539 CNS
  TGI: > 100 µM
SF-268 CNS
  TGI: > 100 µM
XF 498 CNS
  TGI: 38.9 µM
SK-MEL-2 melanoma
  TGI: > 100 µM
M14 melanoma
  TGI: > 100 µM
DMS 114 small cell lung
  TGI: > 100 µM
NCI-H23 lung
  TGI: > 100 µM
HOP-62 NSCLC
  TGI: > 100 µM
ACHN renal
  TGI: > 100 µM
UACC-257 melanoma
  TGI: > 100 µM
TK-10 renal
  TGI: > 100 µM
DMS 273 small cell lung
  TGI: > 100 µM
IGROV1 ovarian
  TGI: 87.3 µM
UO-31 renal
  TGI: > 100 µM
KM12 colon
  TGI: > 100 µM
OVCAR-5 ovarian
  TGI: > 100 µM
SK-OV-3 ovarian
  TGI: > 100 µM
UACC-62 melanoma
  TGI: > 100 µM
NCI-H460 lung
  TGI: > 100 µM
SN12C renal
  TGI: > 100 µM
K-562 leukemia
  TGI: > 100 µM
OVCAR-4 ovarian
  TGI: > 100 µM
RPMI-8226 leukemia
  TGI: > 100 µM
HOP-92 NSCLC
  TGI: 49.8 µM
MALME-3M melanoma
  TGI: > 100 µM
LOX IMVI melanoma
  TGI: > 100 µM
786-0 renal
  TGI: > 100 µM
OVCAR-8 ovarian
  TGI: 99.6 µM
HL-60(TB) leukemia
  TGI: 96.6 µM
SNB-19 CNS
  TGI: > 100 µM
MOLT-4 leukemia
  TGI: > 100 µM
HCT-116 colon
  TGI: > 100 µM
SNB-75 CNS
  TGI: 93.3 µM
SF-295 CNS
  TGI: > 100 µM

## C=CC(=O)NCCSCCCOC1(C(=O)O)CC(O)C(NC(C)=O)C(C(O)C(O)CO)O1 (configuration not stated)
HCC-2998 colon
  TGI: > 100 µM
OVCAR-3 ovarian
  TGI: > 100 µM
HCT-15 colon
  TGI: > 100 µM
LXFL 529 NSCLC
  TGI: > 100 µM
A549 NSCLC
  TGI: > 100 µM
COLO 205 colon
  TGI: > 100 µM
SK-MEL-28 melanoma
  TGI: > 100 µM
U251 CNS
  TGI: > 100 µM
RXF 393 renal
  TGI: > 100 µM
NCI-H522 lung
  TGI: > 100 µM
DLD-1 colon
  TGI: > 100 µM
SW-620 colon
  TGI: > 100 µM
HT29 colon
  TGI: > 100 µM
SNB-78 CNS
  TGI: > 100 µM
NCI-H226 lung
  TGI: > 100 µM
SF-539 CNS
  TGI: > 100 µM
XF 498 CNS
  TGI: > 100 µM
SK-MEL-2 melanoma
  TGI: > 100 µM
M14 melanoma
  TGI: > 100 µM
DMS 114 small cell lung
  TGI: > 100 µM
NCI-H23 lung
  TGI: > 100 µM
ACHN renal
  TGI: > 100 µM
SR leukemia
  TGI: > 100 µM
UACC-257 melanoma
  TGI: > 100 µM
TK-10 renal
  TGI: > 100 µM
DMS 273 small cell lung
  TGI: > 100 µM
IGROV1 ovarian
  TGI: > 100 µM
UO-31 renal
  TGI: > 100 µM
KM12 colon
  TGI: > 100 µM
OVCAR-5 ovarian
  TGI: > 100 µM
SK-OV-3 ovarian
  TGI: > 100 µM
UACC-62 melanoma
  TGI: > 100 µM
NCI-H460 lung
  TGI: > 100 µM
SN12C renal
  TGI: > 100 µM
K-562 leukemia
  TGI: > 100 µM
OVCAR-4 ovarian
  TGI: > 100 µM
RPMI-8226 leukemia
  TGI: > 100 µM
HOP-92 NSCLC
  TGI: > 100 µM
MALME-3M melanoma
  TGI: > 100 µM
LOX IMVI melanoma
  TGI: > 100 µM
786-0 renal
  TGI: > 100 µM
OVCAR-8 ovarian
  TGI: > 100 µM
HL-60(TB) leukemia
  TGI: > 100 µM
SNB-19 CNS
  TGI: > 100 µM
MOLT-4 leukemia
  TGI: > 100 µM
HCT-116 colon
  TGI: > 100 µM
SF-295 CNS
  TGI: > 100 µM

## COC(=O)C(Cc1nc2ccccc2[nH]c1=O)/C(=N\NC(C)(C)C)C(=O)Nc1c(C)cc(Br)cc1C (configuration not stated)
A498 renal
  TGI: 69.5 µM
HCC-2998 colon
  TGI: > 100 µM
HCT-15 colon
  TGI: 48.2 µM
LXFL 529 NSCLC
  TGI: 47.9 µM
SK-MEL-5 melanoma
  TGI: 55.3 µM
EKVX NSCLC
  TGI: > 100 µM
A549 NSCLC
  TGI: > 100 µM
CAKI-1 renal
  TGI: 88.9 µM
COLO 205 colon
  TGI: 36.5 µM
SK-MEL-28 melanoma
  TGI: 51.8 µM
U251 CNS
  TGI: 49.9 µM
NCI-H522 lung
  TGI: 29 µM
DLD-1 colon
  TGI: 48.8 µM
SW-620 colon
  TGI: 80.1 µM
M19-MEL melanoma
  TGI: 90.7 µM
HT29 colon
  TGI: > 100 µM
CCRF-CEM leukemia
  TGI: 57.3 µM
SNB-78 CNS
  TGI: > 100 µM
NCI-H226 lung
  TGI: 54.4 µM
SF-539 CNS
  TGI: 44.5 µM
SF-268 CNS
  TGI: 77.7 µM
SK-MEL-2 melanoma
  TGI: > 100 µM
M14 melanoma
  TGI: 49.3 µM
DMS 114 small cell lung
  TGI: 68.8 µM
NCI-H23 lung
  TGI: 78 µM
HOP-62 NSCLC
  TGI: > 100 µM
ACHN renal
  TGI: > 100 µM
SR leukemia
  TGI: 76.2 µM
UACC-257 melanoma
  TGI: > 100 µM
IGROV1 ovarian
  TGI: > 100 µM
UO-31 renal
  TGI: > 100 µM
KM12 colon
  TGI: > 100 µM
OVCAR-5 ovarian
  TGI: > 100 µM
SK-OV-3 ovarian
  TGI: > 100 µM
UACC-62 melanoma
  TGI: 44.9 µM
NCI-H460 lung
  TGI: > 100 µM
SN12C renal
  TGI: > 100 µM
K-562 leukemia
  TGI: > 100 µM
OVCAR-4 ovarian
  TGI: > 100 µM
RPMI-8226 leukemia
  TGI: > 100 µM
HOP-92 NSCLC
  TGI: 45.5 µM
MALME-3M melanoma
  TGI: 62.2 µM
LOX IMVI melanoma
  TGI: 40.7 µM
786-0 renal
  TGI: 34.4 µM
OVCAR-8 ovarian
  TGI: 54.2 µM
SNB-19 CNS
  TGI: > 100 µM
MOLT-4 leukemia
  TGI: 28.7 µM
HCT-116 colon
  TGI: 37 µM
SF-295 CNS
  TGI: > 100 µM
